We go through twelve compounds from ChEMBL document CHEMBL1142670, “Synthesis, nicotinic acetylcholine receptor binding, and antinociceptive properties of 3'-substituted deschloroepibatidine analogues. Novel nicotinic antagonists” (J Med Chem, 2005).

Each structure is given as a SMILES string.

Assay [1] has as its target Neuronal acetylcholine receptor subunit alpha-7 (Rattus norvegicus, UniProt Q05941). As to the kind of experiment: Inhibition of [125I]-iodo-MLA binding to Nicotinic acetylcholine receptor alpha-7 in rat cerebral cortex. Format: tissue-based.
Assay [2] deals with Neuronal acetylcholine receptor; alpha4/beta2 (Rattus norvegicus, UniProt P09483+P12390). As to the kind of experiment: Inhibition of [3H]epibatidine binding to Nicotinic acetylcholine receptor alpha4-beta2 in rat cerebral cortex. Format: tissue-based.
Neuronal acetylcholine receptor; alpha4/beta2, sequence (P09483 whole entry): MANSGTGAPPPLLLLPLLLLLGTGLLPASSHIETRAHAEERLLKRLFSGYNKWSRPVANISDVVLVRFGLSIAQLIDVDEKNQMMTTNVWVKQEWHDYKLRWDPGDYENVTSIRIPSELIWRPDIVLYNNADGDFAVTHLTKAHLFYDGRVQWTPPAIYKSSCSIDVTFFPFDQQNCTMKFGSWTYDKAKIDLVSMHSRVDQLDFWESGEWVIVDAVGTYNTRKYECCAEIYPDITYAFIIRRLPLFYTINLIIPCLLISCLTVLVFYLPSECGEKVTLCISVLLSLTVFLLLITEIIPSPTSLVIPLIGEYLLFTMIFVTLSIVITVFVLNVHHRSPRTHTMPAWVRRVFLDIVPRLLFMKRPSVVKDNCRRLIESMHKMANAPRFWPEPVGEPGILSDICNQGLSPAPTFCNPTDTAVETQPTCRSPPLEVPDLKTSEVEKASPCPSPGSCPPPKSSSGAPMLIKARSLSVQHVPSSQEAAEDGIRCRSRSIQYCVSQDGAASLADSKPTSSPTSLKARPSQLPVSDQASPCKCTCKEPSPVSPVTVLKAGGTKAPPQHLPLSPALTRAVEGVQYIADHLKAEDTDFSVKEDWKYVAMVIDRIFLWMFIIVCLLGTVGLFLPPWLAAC
Neuronal acetylcholine receptor; alpha4/beta2, sequence (P12390 whole entry): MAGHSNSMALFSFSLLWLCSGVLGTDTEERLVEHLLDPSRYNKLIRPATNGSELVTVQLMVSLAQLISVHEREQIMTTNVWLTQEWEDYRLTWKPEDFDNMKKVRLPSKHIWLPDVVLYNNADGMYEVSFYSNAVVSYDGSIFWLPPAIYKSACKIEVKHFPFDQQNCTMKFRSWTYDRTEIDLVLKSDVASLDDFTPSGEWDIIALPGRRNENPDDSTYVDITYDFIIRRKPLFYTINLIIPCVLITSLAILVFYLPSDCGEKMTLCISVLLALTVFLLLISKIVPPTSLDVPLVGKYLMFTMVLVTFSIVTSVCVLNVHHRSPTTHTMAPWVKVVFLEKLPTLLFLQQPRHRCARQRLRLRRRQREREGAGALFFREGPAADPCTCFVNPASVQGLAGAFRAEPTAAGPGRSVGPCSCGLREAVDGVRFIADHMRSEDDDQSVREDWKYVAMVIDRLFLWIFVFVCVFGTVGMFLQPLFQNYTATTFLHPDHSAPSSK
For assay [3], the system named is Mus musculus. Nature of the assay: Effect on body temperature of mouse was determined at 0.01 ug/kg. The format is functional.
Assay [4] deals with Mus musculus. Nature of the assay: Anesthetic dose in mouse in tail-flick test. The format is functional.
For assay [5], the species on record is Mus musculus. Nature of the assay: Effective dose to induce hypothermia in mouse was determined. Format: functional.
The subject of assay [6] is Mus musculus. As to the kind of experiment: Anesthetic dose in hotplate test in mouse. The format is functional.
Assay [7] is filed under the species Mus musculus. Nature of the assay: Effective dose to induce antinociception in mouse determined in tail-flick test. Format: functional.
The species entered for assay [8] is Mus musculus. As to the kind of experiment: Effective dose to induce spontaneous activity in mouse was determined. Format: functional.
Assay [9] is filed under the species Mus musculus. As to the kind of experiment: Effective dose to induce antinociception in mouse determined in hotplate test. Format: functional.
In assay [10] the test system is Mus musculus. As to the kind of experiment: Anesthetic effect in hotplate test in mouse at 10 ug/kg. Format: functional.
For assay [11], the system named is Mus musculus. Nature of the assay: Effect on body temperature of mouse was determined at 10 ug/kg. The format is functional.
Assay [12] deals with Mus musculus. Nature of the assay: Anesthetic effect in hotplate test in mouse at 0.1 ug/kg. Format: functional.
Assay [13] in a line: Effect on body temperature of mouse was measured in tail-flick test at the rate 500 ug/kg. Format: functional.
Assay [14] concerns Mus musculus. As to the kind of experiment: Anesthetic effect in mouse in hotplate test at 20 ug/kg. The format is functional.
In assay [15] the test system is Mus musculus. Nature of the assay: Effect on body temperature of mouse was determined at 0.02 ug/kg. The format is functional.
Assay [16] concerns Mus musculus. As to the kind of experiment: Anesthetic effect in mouse in hotplate test at 10 ug/kg. The format is functional.
The mark [17] stands for this setting: Mus musculus, Tail, read-out: ED50.

Neuronal acetylcholine receptor subunit alpha-7, sequence (Q05941 whole entry): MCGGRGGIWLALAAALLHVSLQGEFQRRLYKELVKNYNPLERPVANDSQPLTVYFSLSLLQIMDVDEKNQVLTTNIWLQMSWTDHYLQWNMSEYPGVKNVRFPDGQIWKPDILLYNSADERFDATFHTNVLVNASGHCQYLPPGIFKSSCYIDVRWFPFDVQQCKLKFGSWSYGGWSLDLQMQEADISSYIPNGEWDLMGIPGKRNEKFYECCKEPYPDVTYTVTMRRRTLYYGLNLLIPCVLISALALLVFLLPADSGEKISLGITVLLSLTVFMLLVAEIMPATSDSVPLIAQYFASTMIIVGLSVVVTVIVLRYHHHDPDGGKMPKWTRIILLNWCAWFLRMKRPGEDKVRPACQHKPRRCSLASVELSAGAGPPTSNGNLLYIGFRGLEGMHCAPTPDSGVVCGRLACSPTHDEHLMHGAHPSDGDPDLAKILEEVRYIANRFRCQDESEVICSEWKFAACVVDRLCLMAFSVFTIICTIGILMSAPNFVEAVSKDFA

As to `Brc1cncc(C2CC3CCC2N3)c1` (centres undefined), the Ki in [1] was determined as 164 nM; in assay [2], 0.05 nM. The compound also showed an Effect in the assay with Mus musculus [3] of 0%. Also, the AD50 came out at 15 µg/kg in the assay on Mus musculus [4] and 0.78 µg/kg with Mus musculus [6]. The ED50 in the assay filed under Mus musculus [5] (Mus musculus, read-out: ED50) was determined as 70 µg/kg; in the assay listed under Mus musculus [7] (setting [17]), 1200 µg/kg; in the assay filed under Mus musculus [8] (Mus musculus, read-out: ED50), 100 µg/kg; in the assay filed under Mus musculus [9] (Mus musculus, read-out: ED50), 570 µg/kg.
In the assay on Mus musculus [10], `CN1C2CCC1C(c1cncc(I)c1)C2` (centres undefined) yielded an Anesthetic effect of 0%. Further, the Ki in assay [1] is 33.2 nM; in assay [2], 0.029 nM. In the assay on Mus musculus [4], this compound gave an AD50 of 0.04 µg/kg. Further, the ED50 came to 340 µg/kg in the assay filed under Mus musculus [5] (Mus musculus, read-out: ED50); 600 µg/kg in the assay filed under Mus musculus [7] (setting [17]); 30 µg/kg in the assay filed under Mus musculus [8] (Mus musculus, read-out: ED50); 370 µg/kg in the assay filed under Mus musculus [9] (Mus musculus, read-out: ED50). Also, the Effect with Mus musculus [11] is on record as 0%.
For `Clc1ccc(C2CC3CCC2N3)cn1` (centres undefined) [EPIBATIDINE], the ED50 in the assay filed under Mus musculus [5] (Mus musculus, read-out: ED50) stood at 4 µg/kg; in the assay listed under Mus musculus [7] (setting [17]) it was 6 µg/kg; in the assay listed under Mus musculus [8] (Mus musculus, read-out: ED50), 1 µg/kg; in the assay filed under Mus musculus [9] (Mus musculus, read-out: ED50) it was 4 µg/kg.
With `C#Cc1cncc(C2CC3CCC2N3)c1` (centres undefined), the figures for the Ki in assay [1] and in assay [2] were 5 nM and 0.02 nM, respectively. The compound further registered an Effect in the assay with Mus musculus [3] of 0%. The AD50 in the assay on Mus musculus [4] was 6 µg/kg. In addition, the ED50 is 50 µg/kg in the assay listed under Mus musculus [5] (Mus musculus, read-out: ED50); 1000 µg/kg in the assay listed under Mus musculus [7] (setting [17]); 1 µg/kg in the assay listed under Mus musculus [8] (Mus musculus, read-out: ED50); 560 µg/kg in the assay listed under Mus musculus [9] (Mus musculus, read-out: ED50). The Anesthetic effect with Mus musculus [12] turned out to be 0%.
Regarding `Ic1cncc(C2CC3CCC2N3)c1` (single isomer, unassigned; (+)), the Increase in assay [13] was 6%. For the same compound, the results for the Ki in [1] and in assay [2] were 179 nM and 0.045 nM, respectively. For the same compound, in the assay with Mus musculus [4], the AD50 turned out to be 1.2 µg/kg. Also, the ED50 was determined as 780 µg/kg in the assay filed under Mus musculus [7], 91 µg/kg in the assay listed under Mus musculus [8] and 60 µg/kg in the assay filed under Mus musculus [9]. Also, the Anesthetic effect in the assay with Mus musculus [14] is 15%.
For the compound `Ic1cncc(C2CC3CCC2N3)c1` (stereo in doubt; 3d), in [1], the affinity, expressed as Ki, was 150 nM. The compound also registered an Effect in the assay on Mus musculus [3] of 0%. Besides, the figures for the AD50 in the assay with Mus musculus [4] and in the assay with Mus musculus [6] were 0.1 µg/kg and 0.24 µg/kg, respectively. For the same compound, the ED50 stood at 780 µg/kg in the assay filed under Mus musculus [5] (Mus musculus, read-out: ED50); 800 µg/kg in the assay listed under Mus musculus [7] (setting [17]); 130 µg/kg in the assay filed under Mus musculus [8]; 900 µg/kg in the assay filed under Mus musculus [9].
Consider `Nc1cncc(C2CC3CCC2N3)c1` (centres undefined), for which the Ki in [1] was found to be 732 nM; in assay [2], 0.097 nM. The compound also displayed an Effect in the assay with Mus musculus [3] of 0%. In addition, the AD50 stood at 1.6 µg/kg in the assay with Mus musculus [4] and 6.9 µg/kg in the assay with Mus musculus [6]. The ED50 came out at 2700 µg/kg in the assay listed under Mus musculus [5] (Mus musculus, read-out: ED50); 4700 µg/kg in the assay listed under Mus musculus [7] (setting [17]); 900 µg/kg in the assay filed under Mus musculus [8] (Mus musculus, read-out: ED50); 3100 µg/kg in the assay listed under Mus musculus [9] (Mus musculus, read-out: ED50).
On to `C=Cc1cncc(C2CC3CCC2N3)c1` (centres undefined), for which the Ki in assay [1] was 344 nM; in [2] it was 0.26 nM. The Effect with Mus musculus [3] is recorded as 0%. In addition, the AD50 in the assay with Mus musculus [4] turned out to be 2.4 µg/kg; in the assay on Mus musculus [6], 100 µg/kg. In addition, the ED50 worked out at 450 µg/kg in the assay listed under Mus musculus [5] (Mus musculus, read-out: ED50); 1000 µg/kg in the assay listed under Mus musculus [7] (setting [17]); 200 µg/kg in the assay listed under Mus musculus [8] (Mus musculus, read-out: ED50); 800 µg/kg in the assay filed under Mus musculus [9] (Mus musculus, read-out: ED50).
Turning to `Clc1cncc(C2CC3CCC2N3)c1` (centres undefined), the inhibition constant (Ki) in assay [1] came out at 50.6 nM; in assay [2], 0.055 nM. For the same compound, the AD50 with Mus musculus [4] is 0.2 µg/kg; with Mus musculus [6] it was 15 µg/kg. For the same compound, the ED50 in the assay listed under Mus musculus [5] (Mus musculus, read-out: ED50) is 150 µg/kg; in the assay listed under Mus musculus [7] (setting [17]), 300 µg/kg; in the assay filed under Mus musculus [8] (Mus musculus, read-out: ED50), 40 µg/kg; in the assay filed under Mus musculus [9] (Mus musculus, read-out: ED50) it was 230 µg/kg. This compound also had an Effect in the assay on Mus musculus [15] of 0%.
For `CN1CCC[C@H]1c1cccnc1` [NICOTINE], the ED50 in the assay filed under Mus musculus [5] (Mus musculus, read-out: ED50) amounted to 1000 µg/kg; in the assay listed under Mus musculus [7] (setting [17]), 1300 µg/kg; in the assay filed under Mus musculus [8] (Mus musculus, read-out: ED50), 500 µg/kg; in the assay listed under Mus musculus [9] (Mus musculus, read-out: ED50), 650 µg/kg.
Take `Ic1cncc(C2CC3CCC2N3)c1` (single isomer, unassigned; (-)): the inhibitory constant (Ki) in assay [1] came to 156 nM; in assay [2], 0.048 nM. This compound also yielded an AD50 in the assay on Mus musculus [4] of 0.11 µg/kg. Also, the ED50 in the assay listed under Mus musculus [5] is 480 µg/kg; in the assay filed under Mus musculus [7] it was 940 µg/kg; in the assay listed under Mus musculus [8], 351 µg/kg; in the assay listed under Mus musculus [9] it was 210 µg/kg. Besides, the Anesthetic effect with Mus musculus [16] was 15%.
Regarding `Fc1cncc(C2CC3CCC2N3)c1` (centres undefined), the Ki in [1] was greater than 1000 nM. The same compound registered an AD50 with Mus musculus [4] of 0.07 µg/kg. Moreover, the ED50 in the assay listed under Mus musculus [5] (Mus musculus, read-out: ED50) was 150 µg/kg; in the assay listed under Mus musculus [7] (setting [17]) it was 80 µg/kg; in the assay listed under Mus musculus [8] (Mus musculus, read-out: ED50), 23 µg/kg; in the assay filed under Mus musculus [9] (Mus musculus, read-out: ED50), 50 µg/kg. In addition, the Effect with Mus musculus [15] is listed as 0%. This compound also came in with an Anesthetic effect with Mus musculus [14] of 35%.
